Converted amounts (≈) assume the structure as drawn. Read-outs that look alike come from different tables or passages of the source.
Columns and labels:
K. pneumoniae ATCC 13883 = experiment: MIC, broth microdilution (CLSI); format: cell-based, Klebsiella pneumoniae; settings: for MIC ratio 0/1: 0 and 1 µg/mL supplemental iron (Table S2); for MIC ratio 1/0: 1 versus 0 µg/mL supplemental iron (peer review file table); for MIC with β-lactamase inhibitor (βI): + 4 μg/mL clavulanic acid
Experimental: (§1) All bacterial strains (see description and sources Table S1) were stored at −80 °C, and grown on tryptone soya agar (TSA) at 35 °C. The iron-deprived (ID)-MHBCA (cation-adjusted Muller-Hinton Broth, Becton Dickinson, Mississauga, ON, Canada) medium was prepared as reported by refs. [21],[50]. Briefly, MHBCA was treated with 10% Chelex® 50-100 mesh (Sigma) and stirred for 6 h at room temperature. The resin was removed by filtration. Divalent Ca^2+ (CaCl2), Mg^2+ (MgCl2), and Zn^2+(ZnSO4), were then added in the iron-depleted medium at 22, 12, and 1 μg/ml respectively. Finally, the pH was adjusted to 7.3, and the medium was sterilized with a 0.2-μm filter. Regular MHBCA (i.e., not treated with Chelex®) was used to compare the inhibitory activity of conjugates in iron-sufficient conditions. The resin used for Chelex treatment was always fresh and had never been regenerated, ensuring consistent iron removal.
(§2) Minimal inhibitory concentrations (MICs) were performed using a broth microdilution technique according to the Clinical and Laboratory Standards Institute (CLSI) guidelines. MICs were determined in MHBCA and in ID-MHBCA. To check the impact of β-lactamases, MICs in the presence of a β-lactamase inhibitor were also determined. The inhibitor was homogenized at 2X the final concentration and added to the bacterial inoculum just before distributing cells into the wells containing the drug dilutions. The final concentration of each inhibitor was 4 μg/mL for clavulanic acid (tested against K. pneumoniae) and 200 μg/mL for 3-aminophenylboronic acid (tested against P. aeruginosa and A. baumannii).

P. aeruginosa ATCC 27853 = experiment: MIC, broth microdilution (CLSI); format: cell-based, Pseudomonas aeruginosa; settings: for MIC in combination with PAβN: + 25 µg/mL PAβN
Experimental: as §1, with “conditions.” for “conditions. The resin used for Chelex treatment was always fresh and had never been regenerated, ensuring consistent iron removal.”
as §2

A. baumannii ATCC 19606 = experiment: MIC, broth microdilution (CLSI); format: cell-based, Acinetobacter baumannii; settings: for MIC in combination with PAβN: + 25 µg/mL PAβN
Experimental: as §1, §2

E. coli ΔentE = experiment: MIC, Keio mutant; format: cell-based, Escherichia coli
Experimental: as §1, with “conditions.” for “conditions. The resin used for Chelex treatment was always fresh and had never been regenerated, ensuring consistent iron removal.”
as §2

E. coli ΔfecA = experiment: MIC, Keio mutant; format: cell-based, Escherichia coli
Experimental: as §1, with “conditions.” for “conditions. The resin used for Chelex treatment was always fresh and had never been regenerated, ensuring consistent iron removal.”
as §2

E. coli ΔfepA = experiment: MIC, Keio mutant; format: cell-based, Escherichia coli
Experimental: as §1, with “conditions.” for “conditions. The resin used for Chelex treatment was always fresh and had never been regenerated, ensuring consistent iron removal.”
as §2

E. coli ΔtonB = experiment: MIC, Keio mutant; format: cell-based, Escherichia coli
Experimental: as §1, with “conditions.” for “conditions. The resin used for Chelex treatment was always fresh and had never been regenerated, ensuring consistent iron removal.”
as §2

E. coli lptD4213 = experiment: MIC, hyperpermeable mutant; format: cell-based, Escherichia coli
Experimental: as §1, §2

[1] = test system: P. aeruginosa 2302 MexAB, MexCD, MexEF upregulated; experiment: MIC, efflux pump overexpressing strain; format: cell-based, Pseudomonas aeruginosa
Experimental: as §2

[2] = biological target: T1, purified PBP3 of P. aeruginosa (PaPBP3) (Pseudomonas aeruginosa, UniProt G3XD46); experiment: biochemical; format: binding; settings: for IC50: 150 ng PaPBP3, 500 nM Bocillin FL, n = 3, read-out: IC50 PaPBP3 purified
T1 construct: (residues 53 to 579) from P. aeruginosa ATCC 27853 (PaPBP3); His6 (C); made in house; host or cells: E. coli BL21 DE3
T1 sequence (G3XD46 53-579): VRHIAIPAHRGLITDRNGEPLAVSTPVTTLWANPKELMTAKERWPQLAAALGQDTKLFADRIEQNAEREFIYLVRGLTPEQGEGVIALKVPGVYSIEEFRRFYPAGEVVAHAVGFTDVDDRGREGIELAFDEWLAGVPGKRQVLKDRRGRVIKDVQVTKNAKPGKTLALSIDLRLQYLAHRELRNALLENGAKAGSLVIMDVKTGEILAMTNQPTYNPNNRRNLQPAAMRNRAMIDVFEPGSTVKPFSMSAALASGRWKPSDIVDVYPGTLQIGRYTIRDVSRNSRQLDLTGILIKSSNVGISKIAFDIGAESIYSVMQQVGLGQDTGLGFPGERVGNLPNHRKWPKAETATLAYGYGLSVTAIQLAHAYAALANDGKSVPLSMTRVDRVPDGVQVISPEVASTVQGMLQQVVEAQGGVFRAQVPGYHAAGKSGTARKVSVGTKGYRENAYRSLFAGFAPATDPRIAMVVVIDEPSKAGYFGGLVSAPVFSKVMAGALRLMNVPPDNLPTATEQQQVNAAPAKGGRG
Experimental: The PBP binding assay was done as described previously[36],[56],[57]. For each antibiotic concentration tested, a quantity of 25 to 40 μg of membrane preparation was used as the source of PBPs, depending on the species. For the purified PaPBP3, 150 ng was used in the assay. First, increasing concentrations of the test antibiotic was added to the membrane or purified PaPBP3 preparations and incubated for 10 min at 30 °C. The reporter molecule Bocillin FL was then added at 12.5 μM for the membrane PBPs preparations and at 500 nM for the pure PaPBP3 samples for an additional 20 min at 30 °C. All reactions were stopped with the addition of the Laemmli-loading buffer (Bio-Rad) containing fresh β-mercaptoethanol (Sigma). All reactions were then heated at 100°C for 3 min before migration on SDS-polyacrylamide discontinuous gel system (7.5% stacking and 10% separating). Control samples without Bocillin FL were also included to highlight autofluorescent proteins that are not PBPs.
To be able to visualize labeled PBPs after electrophoresis, gels were rinsed in water and fixed in a solution of 50% methanol and 7% acetic acid for 30 min. The fluorescent images of gels were obtained with the Typhoon FLA 9500 instrument (GE-Healthcare Bio-Sciences Inc., Baie-d’Urfé, QC, CA) using a 473 nm excitation wavelength. To obtain quantifiable data, the software Quantity One 1D analysis was used (version 4.6.6; Bio-Rad Laboratories, Richmond, CA). The volume (intensity × constant area) of each PBP was measured. […] All IC50 data were obtained from at least two independent PBP binding assays using two different sets of compound concentrations using a linear regression.

[3] = ID-MHBCA (−), 0 µg/mL supplemental iron, read-out: MIC
[4] = ID-MHBCA + 1 µg/mL supplemental iron, read-out: MIC
[5] = ID-MHBCA, + 200 μg/mL APB, read-out: MIC with β-lactamase inhibitor (βI)
[6] = MHBCA (+), no inhibitor, read-out: MIC

## N[C@@H](C(=O)N[C@@H]1C(=O)N2C(C(=O)O)=C(Cl)CC[C@H]12)c1ccccc1 [LOR, loracarbef, reference compound]
K. pneumoniae ATCC 13883; ID-MHBCA (−), 0 µg/mL supplemental iron
  MIC: 1.6 µM (≈ 0.56 µg/mL)
K. pneumoniae ATCC 13883; ID-MHBCA + 0.1 µg/mL supplemental iron
  MIC: 1.6 µM
K. pneumoniae ATCC 13883; ID-MHBCA + 1 µg/mL supplemental iron
  MIC: 3.1 µM
K. pneumoniae ATCC 13883; ID-MHBCA
  MIC ratio 0/1: 2
  MIC ratio 1/0: 2
  MIC with β-lactamase inhibitor (βI): 1.6 µM
K. pneumoniae ATCC 13883; MHBCA (+)
  MIC: 1.6 µM (≈ 0.56 µg/mL)
K. pneumoniae ATCC 13883; MHBCA
  MIC with β-lactamase inhibitor (βI): 1.6 µM
P. aeruginosa ATCC 27853; [3]
  MIC: >200 µM
P. aeruginosa ATCC 27853; [4]
  MIC: > 200 µM
P. aeruginosa ATCC 27853; [5]
  MIC: >200 µM
P. aeruginosa ATCC 27853; [6]
  MIC: >200 µM
P. aeruginosa ATCC 27853; MHBCA
  MIC in combination with PAβN: > 200 µM
P. aeruginosa ATCC 27853; MHBCA, + 200 μg/mL 3-aminophenylboronic acid (APB), read-out: MIC with β-lactamase inhibitor (βI)
  MIC: >200 µM
A. baumannii ATCC 19606; [3]
  MIC: >200 µM
A. baumannii ATCC 19606; [4]
  MIC: > 200 µM
A. baumannii ATCC 19606; [5]
  MIC: >200 µM
A. baumannii ATCC 19606; [6]
  MIC: >200 µM
A. baumannii ATCC 19606; MHBCA
  MIC in combination with PAβN: > 200 µM
A. baumannii ATCC 19606; MHBCA, + 200 μg/mL APB, read-out: MIC with β-lactamase inhibitor (βI)
  MIC: >200 µM
E. coli ΔentE; ID-MHBCA
  MIC: 6.3 µM (≈ 2.2 µg/mL)
E. coli ΔentE; MHBCA
  MIC: 6.3 µM (≈ 2.2 µg/mL)
E. coli ΔfecA; ID-MHBCA
  MIC: 6.3 µM (≈ 2.2 µg/mL)
E. coli ΔfecA; MHBCA
  MIC: 3.1 µM (≈ 1.08 µg/mL)
E. coli ΔfepA; ID-MHBCA
  MIC: 13 µM (≈ 4.55 µg/mL)
E. coli ΔfepA; MHBCA
  MIC: 6.3 µM (≈ 2.2 µg/mL)
E. coli ΔtonB; ΔtonB, MHBCA
  MIC: 6.3 µM (≈ 2.2 µg/mL)
E. coli lptD4213; lptD4213, ID-MHBCA (−)
  MIC: 1600 nM (≈ 0.56 µg/mL)
E. coli lptD4213; lptD4213, MHBCA (+)
  MIC: 1600 nM (≈ 0.56 µg/mL)
[1]; P. aeruginosa 2302
  MIC: > 200 µM
[2]
  IC50: 8.6 ± 3.6 µM

## O=C(CN(CCCCNC(=O)c1cccc(O)c1O)C(=O)c1cccc(O)c1O)NC(C(=O)NC1C(=O)N2C(C(=O)O)=C(Cl)CCC12)c1ccccc1 (centres unmarked) [BLOR, bis-catechol (azotochelin)-loracarbef]
K. pneumoniae ATCC 13883; ID-MHBCA
  MIC ratio unconjugated β-lactam/conjugate: 16
  MIC ratio 0/1: 64
  MIC ratio 1/0: 64
  MIC with β-lactamase inhibitor (βI): 0.1 µM
K. pneumoniae ATCC 13883; Klebsiella pneumoniae, ATCC13883, ID-MHBCA (−), 0 µg/mL supplemental iron
  MIC: 0.1 µM (≈ 0.075 µg/mL)
K. pneumoniae ATCC 13883; Klebsiella pneumoniae, ATCC13883, ID-MHBCA + 0.1 µg/mL supplemental iron
  MIC: 0.4 µM
K. pneumoniae ATCC 13883; Klebsiella pneumoniae, ATCC13883, ID-MHBCA + 1 µg/mL supplemental iron
  MIC: 6.3 µM
K. pneumoniae ATCC 13883; Klebsiella pneumoniae, ATCC13883, MHBCA (+)
  MIC: 0.2 µM (≈ 0.15 µg/mL)
K. pneumoniae ATCC 13883; MHBCA
  MIC ratio unconjugated β-lactam/conjugate: 8
  MIC with β-lactamase inhibitor (βI): 0.2 µM
P. aeruginosa ATCC 27853; ID-MHBCA
  MIC ratio unconjugated β-lactam/conjugate: No activity
P. aeruginosa ATCC 27853; [3]
  MIC: >200 µM
P. aeruginosa ATCC 27853; MHBCA
  MIC ratio unconjugated β-lactam/conjugate: >16
  MIC in combination with PAβN: > 200 µM
P. aeruginosa ATCC 27853; Pseudomonas aeruginosa, ATCC27853, ID-MHBCA (−), 0 µg/mL supplemental iron, read-out: MIC
  MIC: > 200 µM
P. aeruginosa ATCC 27853; Pseudomonas aeruginosa, ATCC27853, ID-MHBCA + 0.1 µg/mL supplemental iron, read-out: MIC
  MIC: > 200 µM
P. aeruginosa ATCC 27853; Pseudomonas aeruginosa, ATCC27853, ID-MHBCA + 1 µg/mL supplemental iron, read-out: MIC
  MIC: > 200 µM
P. aeruginosa ATCC 27853; Pseudomonas aeruginosa, ATCC27853, ID-MHBCA, + 200 μg/mL APB, read-out: MIC with β-lactamase inhibitor (βI)
  MIC: 0.8 µM
P. aeruginosa ATCC 27853; Pseudomonas aeruginosa, ATCC27853, MHBCA (+), no inhibitor, read-out: MIC
  MIC: 13 µM (≈ 9.75 µg/mL)
P. aeruginosa ATCC 27853; Pseudomonas aeruginosa, ATCC27853, MHBCA, + 200 μg/mL 3-aminophenylboronic acid (APB), read-out: MIC with β-lactamase inhibitor (βI)
  MIC: 6.3 µM
A. baumannii ATCC 19606; Acinetobacter baumannii, ATCC19606, ID-MHBCA (−), 0 µg/mL supplemental iron, read-out: MIC
  MIC: 0.024 µM (≈ 0.018 µg/mL)
A. baumannii ATCC 19606; Acinetobacter baumannii, ATCC19606, ID-MHBCA + 0.1 µg/mL supplemental iron, read-out: MIC
  MIC: 0.1 µM
A. baumannii ATCC 19606; Acinetobacter baumannii, ATCC19606, ID-MHBCA + 1 µg/mL supplemental iron, read-out: MIC
  MIC: 0.4 µM
A. baumannii ATCC 19606; Acinetobacter baumannii, ATCC19606, ID-MHBCA, + 200 μg/mL APB, read-out: MIC with β-lactamase inhibitor (βI)
  MIC: 0.012 µM
A. baumannii ATCC 19606; Acinetobacter baumannii, ATCC19606, MHBCA (+), no inhibitor, read-out: MIC
  MIC: 0.05 µM (≈ 0.0375 µg/mL)
A. baumannii ATCC 19606; Acinetobacter baumannii, ATCC19606, MHBCA, + 200 μg/mL APB, read-out: MIC with β-lactamase inhibitor (βI)
  MIC: 0.012 µM
A. baumannii ATCC 19606; ID-MHBCA, 0 and 1 µg/mL supplemental iron (Table S2)
  MIC ratio 0/1: 16
A. baumannii ATCC 19606; ID-MHBCA, 1 versus 0 µg/mL supplemental iron (peer review file table)
  MIC ratio 1/0: 16
A. baumannii ATCC 19606; MHBCA
  MIC ratio unconjugated β-lactam/conjugate: >4096
  MIC in combination with PAβN: > 6.3 µM
E. coli ΔentE; Escherichia coli, ID-MHBCA
  MIC: 0.012 µM (≈ 0.009 µg/mL)
E. coli ΔentE; Escherichia coli, MHBCA
  MIC: 0.05 µM (≈ 0.0375 µg/mL)
E. coli ΔfecA; Escherichia coli, ID-MHBCA
  MIC: ≤ 0.003 µM
E. coli ΔfecA; Escherichia coli, MHBCA
  MIC: ≤ 0.003 µM
E. coli ΔfepA; Escherichia coli, ID-MHBCA
  MIC: 0.012 µM (≈ 0.009 µg/mL)
E. coli ΔfepA; Escherichia coli, MHBCA
  MIC: 0.1 to 0.4 µM (≈ 0.075 to 0.3 µg/mL)
E. coli ΔfepA; MHBCA
  MIC: 0.1 µM (≈ 0.075 µg/mL)
E. coli ΔtonB; Escherichia coli
  MIC: 50 µM (≈ 37.5 µg/mL)
E. coli lptD4213; Escherichia coli, LPTD4213, lptD4213, ID-MHBCA (−)
  MIC: 6 nM (≈ 0.0045 µg/mL)
E. coli lptD4213; Escherichia coli, LPTD4213, lptD4213, MHBCA (+)
  MIC: 6 nM (≈ 0.0045 µg/mL)
[1]; Pseudomonas aeruginosa
  MIC: 13 µM (≈ 9.75 µg/mL)
[2]
  IC50: 0.38 ± 0.07 µM
[2]; purified PaPBP3
  IC50 ratio βL/SID-βL, PaPBP3 purified: 23
